Experiments:
Type in all cases: in vivo
[1] = system: crab grass; experiment: weed control effect in post-emergence stage (Table 1); set-up: key: Level 10: completely dead; Level 9: above 95% growth control rate; Level 8: above 90% growth control rate; Level 7: above 80% growth control rate; Level 6: above 70% growth control rate; Level 5: above 60% growth control rate; Level 4: above 50% growth control rate; Level 3: above 20% growth control rate; Level 2: 5%-20% growth control rate; Level 1: below 5% growth control rate; details: post-emergence spray at 4-5 leaf stage, 250 g/ha active ingredient with 450 kg/ha water, rated after 3 weeks in greenhouse
In short: (§1)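 Fresh-weight reduction is recorded three weeks after a sprayer applies the acetone/Tween 80 aqueous compound solution to greenhouse-grown plants at the 4-5 leaf stage.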

[2] = system: echinochloa; experiment: as above; set-up: key: Level 10: completely dead; Level 9: above 95% growth control rate; Level 8: above 90% growth control rate; Level 7: above 80% growth control rate; Level 6: above 70% growth control rate; Level 5: above 60% growth control rate; Level 4: above 50% growth control rate; Level 3: above 20% growth control rate; Level 2: 5%-20% growth control rate; Level 1: below 5% growth control rate; details: post-emergence spray at 4-5 leaf stage, 250 g/ha active ingredient with 450 kg/ha water, rated after 3 weeks in greenhouse
In short: as §1

[3] = system: foxtail; experiment: as above; set-up: key: Level 10: completely dead; Level 9: above 95% growth control rate; Level 8: above 90% growth control rate; Level 7: above 80% growth control rate; Level 6: above 70% growth control rate; Level 5: above 60% growth control rate; Level 4: above 50% growth control rate; Level 3: above 20% growth control rate; Level 2: 5%-20% growth control rate; Level 1: below 5% growth control rate; details: post-emergence spray at 4-5 leaf stage, 250 g/ha active ingredient with 450 kg/ha water, rated after 3 weeks in greenhouse
In short: as §1

[4] = system: bidens bipinnata; experiment: as above; set-up: key: Level 10: completely dead; Level 9: above 95% growth control rate; Level 8: above 90% growth control rate; Level 7: above 80% growth control rate; Level 6: above 70% growth control rate; Level 5: above 60% growth control rate; Level 4: above 50% growth control rate; Level 3: above 20% growth control rate; Level 2: 5%-20% growth control rate; Level 1: below 5% growth control rate; details: post-emergence spray at 4-5 leaf stage, 250 g/ha active ingredient with 450 kg/ha water, rated after 3 weeks in greenhouse
In short: as §1

[5] = system: Indian mallow; experiment: as above; set-up: key: Level 10: completely dead; Level 9: above 95% growth control rate; Level 8: above 90% growth control rate; Level 7: above 80% growth control rate; Level 6: above 70% growth control rate; Level 5: above 60% growth control rate; Level 4: above 50% growth control rate; Level 3: above 20% growth control rate; Level 2: 5%-20% growth control rate; Level 1: below 5% growth control rate; details: post-emergence spray at 4-5 leaf stage, 250 g/ha active ingredient with 450 kg/ha water, rated after 3 weeks in greenhouse
In short: as §1

[6] = system: rorippa indica; experiment: as above; set-up: key: Level 10: completely dead; Level 9: above 95% growth control rate; Level 8: above 90% growth control rate; Level 7: above 80% growth control rate; Level 6: above 70% growth control rate; Level 5: above 60% growth control rate; Level 4: above 50% growth control rate; Level 3: above 20% growth control rate; Level 2: 5%-20% growth control rate; Level 1: below 5% growth control rate; details: post-emergence spray at 4-5 leaf stage, 250 g/ha active ingredient with 450 kg/ha water, rated after 3 weeks in greenhouse
In short: as §1

[7] = system: wheat; experiment: post-emergence stage experiment, crop (Table 1); details: post-emergence spray at 4-5 leaf stage, 250 g/ha active ingredient with 450 kg/ha water, rated after 3 weeks in greenhouse
In short: as §1

[8] = system: rice; experiment: post-emergence stage experiment, crop (Table 1); details: post-emergence spray at 4-5 leaf stage, 250 g/ha active ingredient with 450 kg/ha water, rated after 3 weeks in greenhouse
In short: as §1

[9] = system: corn gromwell; experiment: wheat field resistant broadleaf weed control, greenhouse spray at 4 leaf stage; set-up: key: Level 10: completely dead; Level 9: above 95% growth control rate; Level 8: above 90% growth control rate; Level 7: above 80% growth control rate; Level 6: above 70% growth control rate; Level 5: above 60% growth control rate; Level 4: above 50% growth control rate; Level 3: above 20% growth control rate; Level 2: 5%-20% growth control rate; Level 1: below 5% growth control rate; details: 250 g/ha of the active substance; 4 weeks after treatment; ALS inhibitor resistant
Description: (§2) The activity level standard of harmful plant destruction (i.e. growth control rate) is as follows:
(§3) The above described growth control rate is fresh weight control rate.
(§4) The seeds of alopecurus japonicas, flixweed, shepherd's purse, corn gromwell, chickweed, beckmannia syzigachne, and annual ryegrass and wheat seeds were put into a plastic pot loaded with soil, and then covered with 0.5-2 cm soil, the seeds were allowed to grow in good greenhouse environment. The test plants were treated at 4 leaf stage 2-3 weeks after sowing. The test compounds of the present invention were dissolved in acetone respectively, then added with methyl oleate emulsion and diluted by certain amount of water to certain concentration. The solution was sprayed to the plant with a sprayer. Then the plants were cultured for 4 weeks in greenhouse.

[10] = system: flixweed; experiment: as above; set-up: key: Level 10: completely dead; Level 9: above 95% growth control rate; Level 8: above 90% growth control rate; Level 7: above 80% growth control rate; Level 6: above 70% growth control rate; Level 5: above 60% growth control rate; Level 4: above 50% growth control rate; Level 3: above 20% growth control rate; Level 2: 5%-20% growth control rate; Level 1: below 5% growth control rate; details: 250 g/ha of the active substance; 4 weeks after treatment; ALS inhibitor resistant
Description: as §2, §3, §4

[11] = system: chickweed; experiment: as above; set-up: key: Level 10: completely dead; Level 9: above 95% growth control rate; Level 8: above 90% growth control rate; Level 7: above 80% growth control rate; Level 6: above 70% growth control rate; Level 5: above 60% growth control rate; Level 4: above 50% growth control rate; Level 3: above 20% growth control rate; Level 2: 5%-20% growth control rate; Level 1: below 5% growth control rate; details: 250 g/ha of the active substance; 4 weeks after treatment; ALS inhibitor resistant
Description: as §2, §3, §4

[12] = system: shepherd's purse; experiment: as above; set-up: key: Level 10: completely dead; Level 9: above 95% growth control rate; Level 8: above 90% growth control rate; Level 7: above 80% growth control rate; Level 6: above 70% growth control rate; Level 5: above 60% growth control rate; Level 4: above 50% growth control rate; Level 3: above 20% growth control rate; Level 2: 5%-20% growth control rate; Level 1: below 5% growth control rate; details: 250 g/ha of the active substance; 4 weeks after treatment; ALS inhibitor resistant
Description: as §2, §3, §4

[13] = system: wheat; experiment: wheat field test, crop selectivity, greenhouse spray at 4 leaf stage; details: 4 weeks after treatment
Description: as §2, §3, §4

[14] = system: corn; experiment: post-emergence stage experiment, crop (Table 1); details: post-emergence spray at 4-5 leaf stage, 250 g/ha active ingredient with 450 kg/ha water, rated after 3 weeks in greenhouse
In short: as §1

[15] = system: alopecurus japonicas; experiment: wheat field resistant weed control, greenhouse spray at 4 leaf stage; set-up: key: Level 10: completely dead; Level 9: above 95% growth control rate; Level 8: above 90% growth control rate; Level 7: above 80% growth control rate; Level 6: above 70% growth control rate; Level 5: above 60% growth control rate; Level 4: above 50% growth control rate; Level 3: above 20% growth control rate; Level 2: 5%-20% growth control rate; Level 1: below 5% growth control rate; details: sprayed at 4 leaf stage, 4 weeks after treatment, resistant to ALS and ACCase inhibitor herbicides
Description: as §2, §3, §4

[16] = 250 g/ha of the active substance

`CC(=O)N(CC(F)F)c1c(C(F)(F)F)ccc(C(=O)c2c(C)nn(C)c2O)c1Cl` [Compound 005] was tested, and the “weed control effect, Crab grass (level)” value [1] was 2 (Level 2: 5%-20% growth control rate), the “weed control effect, Echinochloa (level)” value [2] was 10 and the “weed control effect, Green foxtail (level)” value [3] was 5 (Level 5: above 60% growth control rate). The “weed control effect, Bidens bipinnata (level)” value [4] was 10, the “weed control effect, Indian mallow (level)” value [5] was 10 and the “weed control effect, Rorippa indica (level)” value [6] was 10. The “effect on crop, Wheat (level)” value [7] was 0, the “effect on crop, Rice (level)” value [8] was 7 (Level 7: above 80% growth control rate) and the “corn gromwell weed controlling effect (activity level)” value (“corn gromwell weed controlling effect” for short) [9] was 10. For the same molecule, the “flixweed weed controlling effect (activity level)” value (“flixweed weed controlling effect” below) [10] was 10, the “chickweed weed controlling effect (activity level)” value (from here on “chickweed weed controlling effect”) [11] was 10 and the “shepherd's purse weed controlling effect (activity level)” value [12] was 10. The “Wheat (activity level, crop damage)” value [13, 16] was 0.

For `Cc1nn(C)cc1C(=O)Oc1c(C(=O)c2ccc(C(F)(F)F)c(-n3cccn3)c2Cl)cnn1C` [Compound 067], the “weed control effect, Crab grass (level)” value [1] was 7 (Level 7: above 80% growth control rate), the “weed control effect, Echinochloa (level)” value [2] was 7 (Level 7: above 80% growth control rate) and the “weed control effect, Green foxtail (level)” value [3] was 10. The “weed control effect, Indian mallow (level)” value [5] was 10, the “weed control effect, Rorippa indica (level)” value [6] was 10 and the “effect on crop, Corn (level)” value [14] was 3 (Level 3: above 20% growth control rate). The “effect on crop, Wheat (level)” value [7] was 0, the “effect on crop, Rice (level)” value [8] was 3 (Level 3: above 20% growth control rate) and the “corn gromwell weed controlling effect” value [9] was 10. For the same molecule, the “flixweed weed controlling effect” value [10] was 10, the “chickweed weed controlling effect” value [11] was 10 and the “shepherd's purse weed controlling effect (activity level)” value [12] was 10. The “Wheat (activity level, crop damage)” value [13, 16] was 0.

`Cc1nn(C)cc1C(=O)Oc1c(C(=O)c2ccc(C(F)(F)F)c(-n3cccn3)c2Cl)c(C)nn1C` [Compound 072] was tested, and the “weed control effect, Crab grass (level)” value [1] was 4 (Level 4: above 50% growth control rate), the “weed control effect, Echinochloa (level)” value [2] was 6 (Level 6: above 70% growth control rate) and the “weed control effect, Green foxtail (level)” value [3] was 10. For the same molecule, the “weed control effect, Indian mallow (level)” value [5] was 10, the “weed control effect, Rorippa indica (level)” value [6] was 10 and the “effect on crop, Corn (level)” value [14] was 3 (Level 3: above 20% growth control rate). For the same molecule, the “effect on crop, Wheat (level)” value [7] was 0, the “effect on crop, Rice (level)” value [8] was 4 (Level 4: above 50% growth control rate) and the “corn gromwell weed controlling effect” value [9] was 10. The “flixweed weed controlling effect” value [10] was 10, the “chickweed weed controlling effect” value [11] was 10 and the “shepherd's purse weed controlling effect (activity level)” value [12] was 10. The “Wheat (activity level, crop damage)” value [13, 16] was 0.

With `CCn1nc(C2CC2)c(C(=O)c2ccc(C(F)(F)F)c(N3CCCCC3=O)c2Cl)c1OC(=O)c1cn(C)nc1C` [Compound 115] the “Alopecurus japonicas weed controlling effect (activity level)” value ([15]; 1 g/mu) was 4 (Level 4: above 50% growth control rate), the “Alopecurus japonicas weed controlling effect (activity level)” value ([15]; 2 g/mu) was 6 (Level 6: above 70% growth control rate) and the “Alopecurus japonicas weed controlling effect (activity level)” value ([15]; 4 g/mu) was 10. The “Alopecurus japonicas weed controlling effect (activity level)” value ([15]; 8 g/mu) was 10, the “weed control effect, Crab grass (level)” value [1] was 2 (Level 2: 5%-20% growth control rate) and the “weed control effect, Echinochloa (level)” value [2] was 9 (Level 9: above 95% growth control rate). The “weed control effect, Green foxtail (level)” value [3] was 10, the “weed control effect, Bidens bipinnata (level)” value [4] was 6 (Level 6: above 70% growth control rate) and the “weed control effect, Indian mallow (level)” value [5] was 10. For the same molecule, the “weed control effect, Rorippa indica (level)” value [6] was 10, the “effect on crop, Corn (level)” value [14] was 3 (Level 3: above 20% growth control rate) and the “effect on crop, Wheat (level)” value [7] was 1 (Level 1: below 5% growth control rate). For the same molecule, the “effect on crop, Rice (level)” value [8] was 8 (Level 8: above 90% growth control rate), the “Wheat (activity level, crop damage)” value ([13]; 2 g/mu, sprayed at 4 leaf stage) was 0 and the “Wheat (activity level, crop damage)” value ([13]; 4 g/mu, sprayed at 4 leaf stage) was 1 (Level 1: below 5% growth control rate). The “Wheat (activity level, crop damage)” value ([13]; 8 g/mu, sprayed at 4 leaf stage) was 3 (Level 3: above 20% growth control rate), the “Wheat (activity level, crop damage)” value ([13]; 16 g/mu, sprayed at 4 leaf stage) was 4 (Level 4: above 50% growth control rate) and the “Wheat (activity level, crop damage)” value ([13]; 32 g/mu, sprayed at 4 leaf stage) was 4 (Level 4: above 50% growth control rate).

In the case of `CC(C)n1nc(C2CC2)c(C(=O)c2ccc(C(F)(F)F)c(N3CCCCC3=O)c2Cl)c1O` [Compound 147], the “corn gromwell weed controlling effect” value [9] is reported as 10, the “flixweed weed controlling effect” value [10] is reported as 10 and the “chickweed weed controlling effect” value [11] is reported as 9 (Level 9: above 95% growth control rate). The “shepherd's purse weed controlling effect (activity level)” value [12] was 10 and the “Wheat (activity level, crop damage)” value [13, 16] was 0.

For `O=C(c1ccc(C(F)(F)F)c(N2CCCCC2=O)c1Cl)c1c(C2CC2)nn(C2CC2)c1O` [Compound 148], the “corn gromwell weed controlling effect” value [9] was 10, the “flixweed weed controlling effect” value [10] was 10 and the “chickweed weed controlling effect” value [11] was 10. The “shepherd's purse weed controlling effect (activity level)” value [12] was 10 and the “Wheat (activity level, crop damage)” value [13, 16] was 1 (Level 1: below 5% growth control rate).
